Earlier results in patent US8389009B2, “Spatial control of signal transduction” (Wisconsin Alumni Research Foundation, priority 2005, dated 2013).
Where two headings read alike, the source gives them in different places. Blank lines part the entries; values can stand above or below the molecule they belong to.

Assays:
IGF-1 [1] = biological target: T1, IGF-1 (Homo sapiens, UniProt P05019); conditions: handle for IGF-1; literature value; read-out: Affinity (KD)
IGF-1 [2] = biological target: T1, IGF-1; conditions: natural receptor binding IGF-1, according to previous studies; read-out: affinity (dissociation constant KD)
VEGF [3] = biological target: T2, VEGF (Homo sapiens, UniProt P15692); conditions: handle for VEGF; literature value; read-out: Affinity (KD)
T2 sequence (P15692 27-191 isoform P15692-4): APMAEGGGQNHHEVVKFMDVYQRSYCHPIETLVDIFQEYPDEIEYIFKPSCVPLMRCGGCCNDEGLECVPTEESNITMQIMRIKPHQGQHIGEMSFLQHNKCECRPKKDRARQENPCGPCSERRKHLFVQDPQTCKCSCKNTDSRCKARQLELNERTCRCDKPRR

VEGF [4] = biological target: T2, VEGF; conditions: natural receptor binding VEGF, according to previous studies; read-out: affinity (dissociation constant KD)

T1 sequence (P05019 49-118 limits assumed): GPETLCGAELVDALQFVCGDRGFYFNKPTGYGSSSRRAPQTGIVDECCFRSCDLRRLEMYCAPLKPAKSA

- Kd (IGF-1 [1]): 100 nM
Molecule: RNCFESVAALRRCMY [SEQ ID NO: 8]

- Kd (IGF-1 [1]): 2000 nM
Molecule: VTCAADALGFLYCWE [SEQ ID NO: 10]

- Kd (IGF-1 [1]): 500 nM
Molecule: HDCFASVEALRRCMY [SEQ ID NO: 9]

- Kd (IGF-1 [2]): ~0.16 nM
Molecule: natural IGF-1 receptor: natural cell surface receptor that binds IGF-1

- Kd (VEGF [4]): ~0.0075 nM
B1: natural VEGF receptor 1: natural cell surface receptor that binds VEGF (protein, UniProt P17948 27-1338, looked up)
Vascular endothelial growth …: SKLKDPELSLKGTQHIMQAGQTLHLQCRGEAAHKWSLPEMVSKESERLSITKSACGRNGKQFCSTLTLNTAQANHTGFYSCKYLAVPTSKKKETESAIYIFISDTGRPFVEMYSEIPEIIHMTEGRELVIPCRVTSPNITVTLKKFPLDTLIPDGKRIIWDSRKGFIISNATYKEIGLLTCEATVNGHLYKTNYLTHRQTNTIIDVQISTPRPVKLLRGHTLVLNCTATTPLNTRVQMTWSYPDEKNKRASVRRRIDQSNSHANIFYSVLTIDKMQNKDKGLYTCRVRSGPSFKSVNTSVHIYDKAFITVKHRKQQVLETVAGKRSYRLSMKVKAFPSPEVVWLKDGLPATEKSARYLTRGYSLIIKDVTEEDAGNYTILLSIKQSNVFKNLTATLIVNVKPQIYEKAVSSFPDPALYPLGSRQILTCTAYGIPQPTIKWFWHPCNHNHSEARCDFCSNNEESFILDADSNMGNRIESITQRMAIIEGKNKMASTLVVADSRISGIYICIASNKVGTVGRNISFYITDVPNGFHVNLEKMPTEGEDLKLSCTVNKFLYRDVTWILLRTVNNRTMHYSISKQKMAITKEHSITLNLTIMNVSLQDSGTYACRARNVYTGEEILQKKEITIRDQEAPYLLRNLSDHTVAISSSTTLDCHANGVPEPQITWFKNNHKIQQEPGIILGPGSSTLFIERVTEEDEGVYHCKATNQKGSVESSAYLTVQGTSDKSNLELITLTCTCVAATLFWLLLTLFIRKMKRSSSEIKTDYLSIIMDPDEVPLDEQCERLPYDASKWEFARERLKLGKSLGRGAFGKVVQASAFGIKKSPTCRTVAVKMLKEGATASEYKALMTELKILTHIGHHLNVVNLLGACTKQGGPLMVIVEYCKYGNLSNYLKSKRDLFFLNKDAALHMEPKKEKMEPGLEQGKKPRLDSVTSSESFASSGFQEDKSLSDVEEEEDSDGFYKEPITMEDLISYSFQVARGMEFLSSRKCIHRDLAARNILLSENNVVKICDFGLARDIYKNPDYVRKGDTRLPLKWMAPESIFDKIYSTKSDVWSYGVLLWEIFSLGGSPYPGVQMDEDFCSRLREGMRMRAPEYSTPEIYQIMLDCWHRDPKERPRFAELVEKLGDLLQANVQQDGKDYIPINAILTGNSGFTYSTPAFSEDFFKESISAPKFNSGSSDDVRYVNAFKFMSLERIKTFEELLPNATSMFDDYQGDSSTLLASPMLKRFTWTDSKPKASLKIDLRVTSKSKESGLSDVSRPSFCHSSCGHVSEGKRRFTYDHAELERKIACCSPPPDYNSVVLYSTPPI

The next lines start with the molecule.

Molecule: AAGAAACGGAAGAAUUGGAGACACGCUCGU (chemistry not given here) [SEQ ID NO: 2]
- Kd (VEGF [3]): 1 nM

Molecule: AUGCAGUUUGAGAAGUCGCGGAU [SEQ ID NO: 1]
- Kd (VEGF [3]): 0.01 nM

Molecule: EELWCFDGPRAWVCGYVK [SEQ ID NO: 7]
- Kd (VEGF [3]): 10000 nM

Molecule: VEPNCDIHVMWEWECFERL [SEQ ID NO: 5]
- Kd (VEGF [3]): 200 nM

Molecule: AGUUUUGGAAGAAUUGGAUGUUCCGAUCGU (chemistry not given here) [SEQ ID NO: 3]
- Kd (VEGF [3]): 10 nM

Molecule: GGAAGAAUUGGUCAUCGUCGUCUCCGCCUCCC (chemistry not given here) [SEQ ID NO: 4]
- Kd (VEGF [3]): 100 nM
